T1: hMPC-1 (Homo sapiens, UniProt Q9Y5U8)
T1 construct: HA tag (hemagglutinin, […]) (N); made in house; host or cells: Sf9 (Spodoptera frugiperda), baculovirus
T1 sequence (Q9Y5U8 1-109): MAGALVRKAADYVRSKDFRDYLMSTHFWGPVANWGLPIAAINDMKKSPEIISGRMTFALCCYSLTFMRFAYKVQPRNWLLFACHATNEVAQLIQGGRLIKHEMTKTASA

T2: hMPC-2 (Homo sapiens, UniProt O95563)
T2 construct: HA tag (hemagglutinin, […]) (N, cleaved yes); 10x His tag (N, cleaved yes); made in house; host or cells: Sf9 (Spodoptera frugiperda), baculovirus
T2 sequence (O95563 1-127): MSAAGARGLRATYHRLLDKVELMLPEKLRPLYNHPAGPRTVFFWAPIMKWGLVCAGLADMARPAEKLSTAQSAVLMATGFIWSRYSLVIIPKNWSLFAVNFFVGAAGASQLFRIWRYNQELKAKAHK

T3: hMPC-1/hMPC-2 (Homo sapiens, UniProt O95563+Q9Y5U8)
T3 construct: HA tag (hemagglutinin, […]) (N); HA tag (hemagglutinin, […]) (N, cleaved yes); 10x His tag (N, cleaved yes); made in house; host or cells: Sf9 (Spodoptera frugiperda), baculovirus; proteins purified singly, mixed 1:1, then FLAG-resin
T3 sequence (Q9Y5U8 1-109): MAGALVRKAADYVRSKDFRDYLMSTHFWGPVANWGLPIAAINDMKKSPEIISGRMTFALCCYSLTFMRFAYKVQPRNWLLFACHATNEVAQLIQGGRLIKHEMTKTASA
T3 sequence (O95563 1-127): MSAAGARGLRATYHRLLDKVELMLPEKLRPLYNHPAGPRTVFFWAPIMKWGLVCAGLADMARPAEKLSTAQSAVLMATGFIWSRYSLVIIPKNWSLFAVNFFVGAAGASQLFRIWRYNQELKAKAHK


What was measured:
hMPC-1 = biological target: T1, hMPC-1; assay: Fluorescence quenching binding assay, purified hMPC-1 homo-complex; conditions: hMPC-1 in DDM micelles, room temperature, fluorescence at 338 nm, n = 3; read-out: Dissociation constant (Kd)
Method: (§1) In vitro fluorescence quenching was performed to measure the binding affinity of the purified hMPCs to their ligands, such as the pyruvate substrate and inhibitors, to validate their function (Figure 4). First, the equilibrium dissociation constants (Kd) of the hMPCs to pyruvate substrates were measured (Figure 4A,D).
(§2) A fluorescence analysis was performed using a LS55 spectrofluorophotometer at room temperature (Perkin Elmer, Waltham, MA, USA). The protein sample was prepared in buffer containing 50 mM Tris-HCl, 300 mM NaCl, and 0.05% DDM with a final concentration of 0.07 mg/ mL. […] Pyruvate was titrated to hMPC-1, hMPC-2, and hMPC-1/hMPC-2 up to 200mM concentrations. In the case of […], it was titrated to hMPC-1, hMPC-2, and hMPC-1/hMPC-2 up to 300uM, 200uM, 200uM concentrations, respectively. Pioglitazone was titrated to hMPC-1, hMPC-2, and hMPC-1/hMPC-2 up to 400uM, 500uM, and 400uM concentrations, respectively. All data were collected in the wavelength range of 270–450 nm (shown from 300 nm to 450 nm only) with a 1-min delay for each titration point. The dissociation constants were calculated by the maximum intensities in the 338 nm wavelength of each spectrum.

hMPC-2 = biological target: T2, hMPC-2; assay: Fluorescence quenching binding assay, purified hMPC-2 homo-complex; conditions: hMPC-2 in DDM micelles, room temperature, fluorescence at 338 nm, n = 3; read-out: Dissociation constant (Kd)
Method: as §1, §2

hMPC-1/hMPC-2 = biological target: T3, hMPC-1/hMPC-2; assay: Fluorescence quenching binding assay, purified hMPC-1/hMPC-2 hetero-complex; conditions: for Kd: hMPC-1/hMPC-2 in DDM micelles, room temperature, fluorescence at 338 nm, n = 3, read-out: Dissociation constant (Kd)
Method: as §1, §2

[1] = biological target: the molecule itself; assay: SEC; analytical SEC, HiLoad 16/600 Superdex 200 pg, 50 mM Tris-HCl (pH 7), 300 mM NaCl, 0.05% (w/v) DDM, 1 mL/min; proteins run alone or mixed 1:1 (mass ratio) at room temperature for 1 h; fractions on SDS-PAGE

| Molecule | Kd (hMPC-1) [mM] | Kd (hMPC-2) [mM] | Kd (hMPC-1/hMPC-2) [mM] | Binding affinity of hetero-complex relative to homo-complex (hMPC-1/hMPC-2; hMPC-1/hMPC-2 hetero-complex higher than homo-complex) [fold] | binding result [1] |
| --- | --- | --- | --- | --- | --- |
| CCc1ccc(CCOc2ccc(CC3SC(=O)NC3=O)cc2)nc1 (centres unmarked) [Pioglitazone] | 0.0841 ± 0.0103 | 0.0993 ± 0.0145 | 0.0603 ± 0.00611 | – | – |
| CC(=O)C(=O)O [Pyruvate] | 12 ± 0.77 | 12.9 ± 0.9 | 8.91 ± 1.09 | 1.5 | – |
| human mitochondrial pyruvate carrier 1 (hMPC-1), C-terminally tagged (natural protein, UniProt Q9Y5U8 1-109, looked up, human mitochondrial pyruvate carrier 1 (hMPC-1); Printed mass of His-hMPC-1: 15.9 kDa; also called His-hMPC-1; human MPC-1; source: Sf9 (baculovirus), purified in DDM (TALON IMAC, gel filtration); also co-expressed with hMPC-2 in Sf9 by co-infection; not shown: FLAG, C-terminal, kept; 10x His, C-terminal, kept) MAGALVRKAADYVRSKDFRDYLMSTHFWGPVANWGLPIAAINDMKKSPEIISGRMTFALCCYSLTFMRFAYKVQPRNWLLFACHATNEVAQLIQGGRLIKHEMTKTASA | – | – | – | – | binds |
